This is an account of results in ChEMBL document CHEMBL5108060, “Discovery, Characterization, and Structure-Based Optimization of Small-Molecule In Vitro and In Vivo Probes for Human DNA Polymerase Theta” (J Med Chem, 2022).

The structures appear in SMILES notation. In brackets after ≈: the same amount, converted by molar mass. Activity calls are given as the source filed them. Bounds are passed on as bounds.

Data set [1] in a line: Metabolic stability in human liver microsomes assessed as intrinsic clearance. It is filed as ADME, Microsome. The settings on record: read-out: CLH. For orientation: Liver microsomes are vesicles of endoplasmic reticulum, rich in cytochrome P450 enzymes.
A short description of data set [2]: Metabolic stability in mouse liver microsomes assessed as intrinsic clearance. Format: ADME, Microsome. Conditions: read-out: CLH.
The target of data set [3] is T1, DNA polymerase theta (Homo sapiens, UniProt O75417). Nature of the data set: Inhibition of recombinant human full length DNA polymerase theta using DNA substrate measured after 1 hrs in presence of dNTPs by plate reader assay.
Data set [4] has as its system DLD-1. Kind of data set: Antiproliferative activity against human BRCA-2 deficient DLD-1 cells. It is filed as functional, cell-based.
A short description of data set [5]: Inhibition of microhomology-mediated end joining in HEK293 cells. Format: functional, cell-based, Homo sapiens.
Data set [6] relates to DLD-1. Nature of the data set: Antiproliferative activity against human DLD-1 cells. It is filed as functional, cell-based.
Data set [7] in a line: Metabolic stability in rat liver microsomes assessed as intrinsic clearance. Format: ADME, Microsome. The settings on record: read-out: CLH.
Data set [8] can be described thus: Lipophilicity, logD of compound. Format: physicochemical. Conditions: octanol/water.
Data set [9] concerns the target T1, DNA polymerase theta. Nature of the data set: Displacement of tracer from recombinant Tb-labeled DNA polymerase theta (unknown origin) assessed as end point Kd using DNA as substrate preincubated for 30 mins followed by compound addition for 2 hrs by HTRF assay.
In data set [10] the target is T1, DNA polymerase theta. Nature of the data set: Displacement of tracer from recombinant Tb-labeled DNA polymerase theta (unknown origin) using DNA as substrate preincubated for 30 mins followed by compound addition for 2 hrs by HTRF assay. A general note: TR-FRET usually uses a lanthanide donor and a delayed reading to cut background.
Data set [11] is described as follows: Oral bioavailability in mouse at 10 mg/kg. It is filed as ADME, organism-based. Conditions: in vivo.
Data set [12] in a line: Oral bioavailability in rat at 10 mg/kg. Format: ADME, organism-based. Conditions: in vivo.
Data set [13] in a line: Free maximum concentration of drug in mouse at 10 mg/kg, po. The settings on record: in vivo. It is filed as ADME, organism-based.
The nature of data set [14]: Mutagenicity in Salmonella typhimurium LT2 TA98 in presence or absence of S9 fraction by Ames test. Conditions: salmonella enterica subsp. enterica serovar typhimurium. It is filed as toxicity.
Data set [15] in a line: Mutagenicity in Salmonella typhimurium LT2 TA100 in presence or absence of S9 fraction by Ames test. It is filed as toxicity. Conditions: salmonella enterica subsp. enterica serovar typhimurium. (In general: The Ames test detects mutagens through reverse mutation in bacteria.)
Data set [16] is described as follows: Half life in mouse at 3 mg/kg, iv. It is filed as ADME, organism-based. Conditions: in vivo.
Data set [17] in a line: Free maximum concentration of drug in rat at 10 mg/kg, po. Format: ADME, organism-based. The settings on record: in vivo.
Data set [18] can be described thus: In vivo inhibition of DNA polymerase theta in mouse assessed as fold induction of micronuclei in reticulocytes at 150 mg/kg, po BID for 4 days by flow cytometry analysis. It is filed as functional. The settings on record: time 4 day.
The nature of data set [19]: AUCinfinity in mouse at 10 mg/kg, po. Conditions: in vivo. Format: ADME, organism-based. Also on record: time infinity, dose 10 mg/kg, route po.
Data set [20] in a line: Volume of distribution at steady state in mouse at 3 mg/kg, iv. It is filed as ADME, organism-based. Conditions: in vivo, read-out: Vdss.
The nature of data set [21]: Solubility of the compound. Format: physicochemical.
The test system of data set [22] is Breast carcinoma cell. Nature of the data set: Antitumor activity against BRCA1/SHLD2 knockout rat breast cancer xenograft model assessed as tumor growth inhibition at 100 mg/kg, po qd. Format: functional, organism-based.
The nature of data set [23]: Volume of distribution at steady state in rat at 3 mg/kg, iv. Conditions: in vivo, read-out: Vdss. It is filed as ADME, organism-based.
A short description of data set [24]: Clearance in mouse plasma at 0.3 mg/kg, iv. It is filed as ADME, organism-based.
A short description of data set [25]: AUCinfinity in rat at 10 mg/kg, po. Format: ADME, organism-based. Also on record: time infinity, dose 10 mg/kg, route po. The settings on record: in vivo.
A short description of data set [26]: Clearance in rat plasma at 3 mg/kg, iv. It is filed as ADME, organism-based.
Data set [27] is described as follows: Half life in rat at 3 mg/kg, iv. Format: ADME, organism-based. Conditions: in vivo.
Data set [28] in a line: Clearance in mouse plasma at 3 mg/kg, iv. It is filed as ADME, organism-based.

T1 sequence (O75417 whole entry): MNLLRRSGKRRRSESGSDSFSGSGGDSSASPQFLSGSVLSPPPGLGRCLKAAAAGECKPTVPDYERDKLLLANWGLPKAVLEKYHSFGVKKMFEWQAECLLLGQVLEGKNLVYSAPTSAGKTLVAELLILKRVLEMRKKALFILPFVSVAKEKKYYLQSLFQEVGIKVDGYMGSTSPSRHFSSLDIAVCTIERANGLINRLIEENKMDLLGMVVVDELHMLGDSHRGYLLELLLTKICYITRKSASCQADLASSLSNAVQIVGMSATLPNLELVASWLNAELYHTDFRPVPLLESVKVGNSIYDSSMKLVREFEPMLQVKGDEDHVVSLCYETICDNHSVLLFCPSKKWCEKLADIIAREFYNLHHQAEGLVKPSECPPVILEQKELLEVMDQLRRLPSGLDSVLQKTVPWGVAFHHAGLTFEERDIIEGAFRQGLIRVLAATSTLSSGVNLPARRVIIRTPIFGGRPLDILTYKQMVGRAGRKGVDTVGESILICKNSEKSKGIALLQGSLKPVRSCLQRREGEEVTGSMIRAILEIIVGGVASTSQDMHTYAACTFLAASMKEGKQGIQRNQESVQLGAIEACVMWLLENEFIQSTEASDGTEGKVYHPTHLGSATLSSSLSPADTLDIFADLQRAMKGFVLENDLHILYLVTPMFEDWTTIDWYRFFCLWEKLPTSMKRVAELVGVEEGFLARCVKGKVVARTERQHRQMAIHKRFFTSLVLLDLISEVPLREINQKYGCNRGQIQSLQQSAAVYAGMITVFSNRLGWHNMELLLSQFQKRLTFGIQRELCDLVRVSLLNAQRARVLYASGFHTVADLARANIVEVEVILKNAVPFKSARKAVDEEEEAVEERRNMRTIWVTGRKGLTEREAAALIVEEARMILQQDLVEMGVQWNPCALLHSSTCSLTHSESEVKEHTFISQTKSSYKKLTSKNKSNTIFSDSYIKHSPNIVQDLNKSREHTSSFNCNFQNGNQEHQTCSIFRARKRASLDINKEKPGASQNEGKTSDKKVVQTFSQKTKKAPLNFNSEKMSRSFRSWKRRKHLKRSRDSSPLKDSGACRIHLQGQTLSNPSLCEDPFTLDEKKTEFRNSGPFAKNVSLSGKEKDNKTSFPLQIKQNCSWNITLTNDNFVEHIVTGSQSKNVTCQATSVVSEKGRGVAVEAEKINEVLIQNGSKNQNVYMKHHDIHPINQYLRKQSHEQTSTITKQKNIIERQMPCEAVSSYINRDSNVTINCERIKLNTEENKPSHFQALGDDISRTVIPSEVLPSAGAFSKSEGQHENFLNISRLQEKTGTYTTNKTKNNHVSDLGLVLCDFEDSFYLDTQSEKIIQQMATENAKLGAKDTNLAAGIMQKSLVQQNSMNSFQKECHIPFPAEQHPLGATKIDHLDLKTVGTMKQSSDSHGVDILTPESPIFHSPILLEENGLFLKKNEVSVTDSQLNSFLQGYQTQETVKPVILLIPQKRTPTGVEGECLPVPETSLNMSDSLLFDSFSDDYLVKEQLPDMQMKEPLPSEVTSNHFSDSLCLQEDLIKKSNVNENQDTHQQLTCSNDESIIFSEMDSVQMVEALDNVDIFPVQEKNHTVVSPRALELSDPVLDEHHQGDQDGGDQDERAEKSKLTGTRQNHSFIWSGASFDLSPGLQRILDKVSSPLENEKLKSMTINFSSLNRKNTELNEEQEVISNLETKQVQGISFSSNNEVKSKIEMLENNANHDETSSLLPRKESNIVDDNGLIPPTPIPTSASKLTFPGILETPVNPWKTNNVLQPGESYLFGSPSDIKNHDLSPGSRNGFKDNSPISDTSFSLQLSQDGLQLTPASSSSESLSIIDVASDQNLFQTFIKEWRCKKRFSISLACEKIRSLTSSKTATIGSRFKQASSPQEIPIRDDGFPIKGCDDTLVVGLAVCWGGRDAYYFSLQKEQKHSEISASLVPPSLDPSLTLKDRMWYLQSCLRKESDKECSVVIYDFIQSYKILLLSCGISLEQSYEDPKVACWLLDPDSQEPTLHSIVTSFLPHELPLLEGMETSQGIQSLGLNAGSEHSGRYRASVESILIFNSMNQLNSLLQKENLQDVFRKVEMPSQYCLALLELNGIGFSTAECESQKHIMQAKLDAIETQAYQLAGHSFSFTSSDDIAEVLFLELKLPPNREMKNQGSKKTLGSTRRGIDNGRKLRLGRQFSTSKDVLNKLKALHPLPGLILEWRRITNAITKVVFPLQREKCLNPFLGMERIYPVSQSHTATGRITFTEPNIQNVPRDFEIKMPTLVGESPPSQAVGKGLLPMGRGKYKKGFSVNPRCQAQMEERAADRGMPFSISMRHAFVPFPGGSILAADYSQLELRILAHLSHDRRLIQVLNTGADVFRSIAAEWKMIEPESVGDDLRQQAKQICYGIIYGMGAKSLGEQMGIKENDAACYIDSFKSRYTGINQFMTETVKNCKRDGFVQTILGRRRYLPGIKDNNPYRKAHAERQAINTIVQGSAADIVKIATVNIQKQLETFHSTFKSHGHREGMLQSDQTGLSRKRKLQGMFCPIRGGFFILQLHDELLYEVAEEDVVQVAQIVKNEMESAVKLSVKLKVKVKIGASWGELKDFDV

As for `Cc1cc(C(F)(F)F)cc(N2C(=O)[C@@H](O)C[C@H]2C(=O)N(C)c2ccc(F)c(Cl)c2)n1`, the values for the microsomal CLint in data set [1] and in [2] were 60 µL/min/mg and 96 µL/min/mg, respectively.

Consider `CCN(C(=O)[C@@H]1C[C@H](O)C(=O)N1c1cc(C(F)(F)F)cc(C)n1)c1ccc(F)c(Cl)c1`, for which, in data set [2], the microsomal CLint stood at 181 µL/min/mg.

On to `Cc1cccc(N(C(=O)[C@@H]2CCCN2c2nc(C)cc(C(F)(F)F)c2C#N)C(C)C)c1`, for which, in data set [3], the IC50 was 8.8 nM.

`CCN(C(=O)[C@@H]1[C@H](O)[C@H](O)C(=O)N1c1cc(C(F)(F)F)cc(C)n1)c1ccc(F)c(Cl)c1`: the EC50 was 6900 nM in data set [4], 362 nM in data set [5] and more than 12000 nM in data set [6]. In addition, the microsomal CLint was less than 10 µL/min/mg in [1], 20 µL/min/mg in data set [2] and 30 µL/min/mg in data set [7].

For `Cc1cc(C(F)(F)F)cc(N2C(=O)OC[C@H]2C(=O)N(C)c2ccc(F)c(C)c2F)n1`, in data set [3], the IC50 was 4.1 nM. In addition, the microsomal CLint in [2] stood at 818 µL/min/mg.

Consider `Cc1cccc(N(C)C(=O)[C@@H]2COC(=O)N2c2cc(C(F)(F)F)cc(C)n2)c1`, for which the pH-dependent lipophilicity (logD) in data set [8] is 3.6. Besides, the microsomal CLint in data set [2] came to 580 µL/min/mg.

On to `CCN(C(=O)[C@H](C)Nc1nc(C)cc(C(C)C)c1C#N)c1cccc(C)c1`, for which, in data set [3], the IC50 came to 49 nM.

On to `Cc1cc(C(F)(F)F)cc(N2C(=O)[C@H](O)[C@H](O)[C@@H]2C(=O)N(C)c2ccc(F)c(Cl)c2)n1`, for which the half-maximal effective concentration (EC50) in data set [4] and in [6] was more than 12000 nM in each case. Further, the 50% inhibitory concentration (IC50) in data set [3] is more than 12000 nM.

Regarding `Cc1cccc(N(C)C(=O)[C@@H]2C[C@H](O)CN2c2nc(C)cc(C)c2C#N)c1`, the EC50 in data set [4] is 4100 nM; in data set [5], 280 nM; in data set [6], more than 12000 nM. In addition, the dissociation constant (Kd) in data set [9] stood at 51 nM; in data set [10] it was 19 nM.

On to `Cc1cc(C(F)(F)F)cc(N2C(=O)OC[C@H]2C(=O)N(C)c2cc(Cl)ccc2F)n1`, for which the microsomal CLint in data set [2] turned out to be 157 µL/min/mg.

`Cc1cc(C(F)(F)F)cc(N2C(=O)C[C@@H](O)[C@H]2C(=O)N(C)c2ccc(F)c(Cl)c2)n1`: the EC50 in [4] was 2000 nM; in data set [5] it was 255 nM; in data set [6] it was more than 12000 nM. Besides, the half-inhibitory concentration (IC50) in [3] stood at 5.9 nM. For the same compound, the microsomal CLint in [2] was determined as 260 µL/min/mg.

As for `CCN(C(=O)COc1nc(C)cc(C)c1C#N)c1cccc(C)c1`, the results for the EC50 in [4], in data set [5] and in [6] were more than 12000 nM, 1840 nM and more than 12000 nM, respectively. In addition, the Kd in data set [9] was 820 nM. Also, the 50% inhibitory concentration (IC50) in data set [3] amounted to 4400 nM.

Regarding `Cc1cccc(N(C)C(=O)[C@@H]2[C@@H](O)CCN2c2nc(C)cc(C(F)(F)F)c2C#N)c1`, the half-maximal effective concentration (EC50) was 3000 nM in data set [4], 320 nM in data set [5] and more than 12000 nM in data set [6]. For the same compound, the Kd came to 42 nM in data set [9] and 24 nM in [10].

Turning to `CCN(C(=O)COc1cc(C(C)C)cc(C)n1)c1cccc(C)c1`, the IC50 in data set [3] was 400 nM.

On to `CCN(C(=O)COc1cc(C)cc(C)n1)c1cccc(C)c1`, for which the concentration for half-maximal inhibition (IC50) in [3] came to 4200 nM.

With `CCN(C(=O)[C@H](C)Nc1nc(C)cc(C)c1C#N)c1cccc(C)c1`, in data set [3], the IC50 came out at 230 nM.

Take `CCN(C(=O)[C@@H]1CCCN1c1nc(C)cc(C)c1C#N)c1cccc(C)c1`: the IC50 in data set [3] turned out to be 72 nM.

Regarding `Cc1cc(C(F)(F)F)cc(N2C(=O)[C@@H](O)[C@@H](O)[C@H]2C(=O)N(C)c2ccc(F)c(Cl)c2)n1`, the bioavailability in data set [11] was found to be 80%; in data set [12], 57%. Moreover, the pH-dependent lipophilicity (logD) in [8] is 3. For the same compound, the EC50 in data set [4] is 1100 nM; in data set [5] it was 240 nM; in data set [6], more than 12000 nM. Besides, the fCmax in [13] is reported as 405 nM; in data set [17], 79 nM. In addition, the Activity result in [14] and in data set [15] was “Non-Toxic” throughout. Also, the microsomal CLint is 30 µL/min/mg in data set [1], 42 µL/min/mg in data set [2] and 50 µL/min/mg in [7]. For the same compound, the half-life in [16] was 7 h; in data set [27], 1.3 h. The 50% inhibitory concentration (IC50) in data set [3] is 7.6 nM. For the same compound, the “fold change (FC)” value in data set [18] is given as 2. Moreover, the area under the curve AUC(0-inf) in data set [19] is 54700 ng·h/mL; in data set [25], 2750 ng·h/mL. For the same compound, the results for the Vd in data set [20] and in data set [23] were 2.5 L/kg and 2.9 L/kg, respectively. The compound further had a solubility in data set [21] of 880 µM (≈ 406 µg/mL). Moreover, the outcome in data set [22] was Active. Also, the clearance in data set [24] came out at 16.4 mL/min/kg; in data set [26], 35 mL/min/kg; in data set [28] it was 2.8 mL/min/kg.

For `CCN(C(=O)COc1nc(C)c(Cl)c(C)c1C#N)c1cccc(C)c1`, the IC50 in data set [3] came out at 630 nM.

For `Cc1cc(C(F)(F)F)cc(N2C(=O)OC[C@H]2C(=O)N(C)c2cccc(Cl)c2F)n1`, in [2], the microsomal CLint came to 165 µL/min/mg.

Take `Cc1cccc(N(C)C(=O)[C@@H]2C[C@H](O)CN2c2nccc(C(F)(F)F)c2C#N)c1`: the EC50 is 11500 nM in data set [4], 1030 nM in data set [5] and more than 12000 nM in data set [6].

Usually IC50 stands for the concentration that gives 50% inhibition. For orientation: EC50 means the concentration at which the effect is half-maximal. A lower EC50 goes with a more potent agent. What is called logD is lipophilicity at a set pH, counting ionised and neutral species. High values mean higher lipophilicity, low ones lower lipophilicity. A word on the Kd: it is the free concentration of one partner at which half of the binding sites on the other are occupied at equilibrium, for simple one-to-one binding. A word on the bioavailability: it is dose-corrected exposure relative to a reference, in per cent. High values mean good availability, low ones poor availability. One may read the half-life as the time needed for the level to fall by half in the phase considered. Read a high half-life as slow decline. One may read the AUC(0-inf) as total exposure, with the tail of the curve extrapolated. High values mean more exposure, low ones less exposure. What is called solubility is how much of the substance goes into solution per volume. Lower therefore signals little dissolved substance. The clearance is the rate of elimination divided by the concentration. Read a high clearance as a high capacity for elimination.
